In patent publication CN102503942A, “一种氟喹诺酮衍生物及其制备和药物应用” (Individual, priority 2011, dated 2012):
Converted amounts (≈) assume the structure as drawn.

These compounds were tested on Staphylococcus aureus, ATCC 25923 (金黄色葡萄球菌,ATCC 25923) (assay: MIC by broth microdilution (微量肉汤稀释法)). Details: ATCC25923, 16 h, MH broth, pH 7.2~7.4, 35℃, 16~20 h.
Type: cell-based

SMILES	MIC
COc1c(N2CCN3CCNC3C2)c(F)cc2c(=O)c(C(=O)O)cn(C3CC3)c12 (centres unmarked) [例子4, 7-(六氢咪唑并[1,2-a]吡嗪基)-1-环丙基-6-氟-1,4-二氢-8-甲氧基-4-氧代-3-喹啉羧酸]	< 0.1 µg/mL
CC1COc2c(N3CCN(C)CC3)c(F)cc3c(=O)c(C(=O)O)cn1c23 (centres unmarked) [氧氟沙星, reference compound]	0.3 µg/mL (≈ 0.83 µM)
COc1c(N2CCN3CCCCC3C2)c(F)cc2c(=O)c(C(=O)O)cn(C3CC3)c12 (centres unmarked) [例子1, 7-(八氢-2H-吡啶并[1,2-a]吡嗪基)-1-环丙基-6-氟-1,4-二氢-8-甲氧基-4-氧代-3-喹啉羧酸]	< 0.3 µg/mL
COc1c(N2CCN3CCNCC3C2)c(F)cc2c(=O)c(C(=O)O)cn(C3CC3)c12 (centres unmarked) [例子3, 7-(八氢-2H-吡嗪并[1,2-a]吡嗪基)-1-环丙基-6-氟-1,4-二氢-8-甲氧基-4-氧代-3-喹啉羧酸]	< 0.3 µg/mL
COc1c(N2CCN3CCCC3C2)c(F)cc2c(=O)c(C(=O)O)cn(C3CC3)c12 (centres unmarked) [例子2, 7-(六氢吡咯并[1,2-a]吡嗪基)-1-环丙基-6-氟-1,4-二氢-8-甲氧基-4-氧代-3-喹啉羧酸]	< 0.1 µg/mL
